# Data reported in patent publication US6902915B2, “Heat-stable D-aminoacylase” (Daicel Chemical Industries, Ltd., priority 2000, dated 2005).
# Entries after “also recorded” stand apart in the source; their conditions may differ.
# Tested on: D-aminoacylase derived from Streptomyces thermonitrificans
# Assay: Substrate specificity of D-aminoacylase
# Assay type: biochemical
# Conditions: N-acetyl amino acid substrates
# Method: The activity of the D-aminoacylase of the present invention can be tested by the following procedure. For example, an enzyme solution (100 μl) is mixed and incubated with 50 mM Tris-HCl (pH 7.5) buffer (total volume: 500 μl) containing 20 mM substrate (various N-acetyl-D-amino acids) at 30° C. for 60 minutes. By measuring the amounts of amino acid synthesized by this reaction, enzymatic activities for respective substrates can be compared with each other. Assay for amino acid is performed by the TNBS (trinitrobenzenesulfonic acid) method or the HPLC method.
# (§1) The measurement of the enzyme activity was proceeded according to the TNBS method (Tokuyama, S., Hatano, K., and Takahashi, T., Biosci.Biotech.Biochem. 58:24(1994)). That is, the sample containing the amino acid was added to 0.5 ml of solution (C) (0.1 M Na2B4O7) to give a total volume of 1.0 ml. […] of 0.11 M TNBS solution was added with stirring immediately. The absorbance at 420 nm was measured after 5 minutes.
# D-methionine was measured colorimetrically using L-methionine as a standard, and the amount of enzyme-producing 1 μmol of D-methionine in 1 minute at 30° C. was determined 1 unit.
# The substrate specificity of the enzyme of the present invention was compared taking the enzyme activity against N-acetyl-D-methionine as 100%. N-acetyl-D-valine, N-acetyl-D-phenylalanine, N-acetyl-D-leucine, N-acetyl-D-tryptophan, N-acetvl-D-alanine N-acetyl-L-methionine, N-acetyl-L-leucine, and N-acetyl-L-valine was used as the substrate for comparison. The enzyme activity was measured in a standard reaction solution (total volume of 500 μl containing 100 μl of enzyme solution, and 400 μl of 50 mM Tris/HCl (pH 7.5) containing 20 mM of each substrate and 1 mM cobalt chloride at 30° C. for 60 minutes. The substrate specificity for N-acetyls of D-methionine, D-leucine, D-valine, D-tryptophan, D-alanine and D-phenylalanine is depicted in Table 2.
row,Structure (SMILES),Catalysis of the reaction with the substrate (in words)
1,"CC(=O)N[C@H](Cc1ccccc1)C(=O)O [N-Ac-D-Phe, N-acetyl-D-phenylalanine]",efficiently catalyzes; also recorded: catalyze especially well
2,"CC(=O)N[C@@H](C(=O)O)C(C)C [N-Ac-D-Val, N-acetyl-D-valine]",catalyzes; also recorded: catalytic actions
3,"CC(=O)N[C@H](Cc1c[nH]c2ccccc12)C(=O)O [N-Ac-D-Trp, N-acetyl-D-tryptophan]",efficiently catalyzes; also recorded: catalyze especially well
4,"CC(=O)N[C@H](C(=O)O)C(C)C [N-Ac-L-Val, N-acetyl-L-valine]",didn't catalyze; also recorded: substantially no catalytic activity
5,"CC(=O)N[C@H](C)C(=O)O [N-Ac-D-Ala, N-acetyl-D-alanine]",catalyzes; also recorded: catalytic actions
6,"CC(=O)N[C@@H](Cc1ccccc1)C(=O)O [N-Ac-L-Phe, N-acetyl-L-phenylalanine]",didn't catalyze; also recorded: substantially no catalytic activity
7,"CC(=O)N[C@H](CC(C)C)C(=O)O [N-Ac-D-Leu, N-acetyl-D-leucine]",catalyzes; also recorded: catalytic actions
8,"CSCC[C@@H](NC(C)=O)C(=O)O [N-Ac-D-Met, N-acetyl-D-methionine]",efficiently catalyzes; also recorded: catalyze especially well
9,"CSCC[C@H](NC(C)=O)C(=O)O [N-Ac-L-Met, N-acetyl-L-methionine]",didn't catalyze; also recorded: substantially no catalytic activity

# Same assay, conditions: substrate 20 mM, 1 mM cobalt chloride, 50 mM Tris/HCl pH 7.5, 30° C., 60 minutes
row,Activity,Structure (SMILES)
1,62.2 mU/ml,"CC(=O)N[C@H](Cc1ccccc1)C(=O)O [N-Ac-D-Phe, N-acetyl-D-phenylalanine]"
2,14.7 mU/ml,"CC(=O)N[C@@H](C(=O)O)C(C)C [N-Ac-D-Val, N-acetyl-D-valine]"
3,48.4 mU/ml,"CC(=O)N[C@H](Cc1c[nH]c2ccccc12)C(=O)O [N-Ac-D-Trp, N-acetyl-D-tryptophan]"
4,0 mU/ml,"CC(=O)N[C@H](C(=O)O)C(C)C [N-Ac-L-Val, N-acetyl-L-valine]"
5,16.9 mU/ml,"CC(=O)N[C@H](C)C(=O)O [N-Ac-D-Ala, N-acetyl-D-alanine]"
6,0 mU/ml,"CC(=O)N[C@@H](Cc1ccccc1)C(=O)O [N-Ac-L-Phe, N-acetyl-L-phenylalanine]"
7,8.93 mU/ml,"CC(=O)N[C@H](CC(C)C)C(=O)O [N-Ac-D-Leu, N-acetyl-D-leucine]"
8,40.6 mU/ml,"CSCC[C@@H](NC(C)=O)C(=O)O [N-Ac-D-Met, N-acetyl-D-methionine]"
9,0 mU/ml,"CSCC[C@H](NC(C)=O)C(=O)O [N-Ac-L-Met, N-acetyl-L-methionine]"

# Same assay, conditions: substrate 20 mM; activity against N-acetyl-D-methionine taken as 100%
row,Relative activity,Structure (SMILES)
1,144%,"CC(=O)N[C@H](Cc1ccccc1)C(=O)O [N-Ac-D-Phe, N-acetyl-D-phenylalanine]"
2,40%,"CC(=O)N[C@@H](C(=O)O)C(C)C [N-Ac-D-Val, N-acetyl-D-valine]"
3,105%,"CC(=O)N[C@H](Cc1c[nH]c2ccccc12)C(=O)O [N-Ac-D-Trp, N-acetyl-D-tryptophan]"
4,0%,"CC(=O)N[C@H](C(=O)O)C(C)C [N-Ac-L-Val, N-acetyl-L-valine]"
5,40%,"CC(=O)N[C@H](C)C(=O)O [N-Ac-D-Ala, N-acetyl-D-alanine]"
6,0%,"CC(=O)N[C@@H](Cc1ccccc1)C(=O)O [N-Ac-L-Phe, N-acetyl-L-phenylalanine]"
7,21%,"CC(=O)N[C@H](CC(C)C)C(=O)O [N-Ac-D-Leu, N-acetyl-D-leucine]"
8,100%,"CSCC[C@@H](NC(C)=O)C(=O)O [N-Ac-D-Met, N-acetyl-D-methionine]"
9,0%,"CSCC[C@H](NC(C)=O)C(=O)O [N-Ac-L-Met, N-acetyl-L-methionine]"

# Tested on: D-aminoacylase derived from Streptomyces thermonitrificans
# Assay: Effect of metal salt for D-aminoacylase
# Assay type: biochemical
# Conditions: not given
# Method: as §1
# (§2) Various metal salt and various enzyme inhibitors were added to a concentration of 1 mM to the enzyme reaction, and measurement of the enzyme reaction was performed. The enzyme reaction was conducted in 50 mM Tris/HCl (pH 7.5) buffer (total volume of 500 μl). For the metal salt added reaction, 1 mM of each metal salt or EDTA was added to the standard reaction composition solution without the enzyme and was preincubated at 30° C. for 5 minutes, then enzyme was added to react at 30° C. for 60 minutes. For the enzyme inhibitor added reaction, the standard reaction solution without the substrate was preincubated at 5 minutes, then after adding 1 mM of each inhibitor […] the substrate was added, and the enzyme reaction was performed at 30° C. for 100 minutes. The relative activity was calculated taking activity of enzyme actions without addition of inhibitors as 100%.
row,Structure (SMILES),Relative activity
1,[Cl-].[Na+] [NaCl],103%

# Same assay, conditions: 1 mM metal ion or EDTA
row,Structure (SMILES),Effect on enzyme activity (in words)
1,[Cl][Cu][Cl] [CuCl2],markedly inhibited
2,O=C(O)CN(CCN(CC(=O)O)CC(=O)O)CC(=O)O [EDTA],inhibited
3,"[Cl][Co][Cl] [CoCl2, cobalt chloride]",increased

# Same assay, conditions: 1 mM metal salt or EDTA, 50 mM Tris/HCl pH 7.5, 30° C., 60 minutes
row,Structure (SMILES),Activity
1,[Ba+2].[Cl-].[Cl-] [BaCl2],30.6 mU/ml
2,[Cl][Cu][Cl] [CuCl2],1.0 mU/ml
3,[Cl-].[Cl-].[Zn+2] [ZnCl2],22.2 mU/ml
4,[Cl][Mn][Cl] [MnCl2],21.0 mU/ml
5,[Cl-].[K+] [KCl],30.9 mU/ml
6,O=C(O)CN(CCN(CC(=O)O)CC(=O)O)CC(=O)O [EDTA],9.4 mU/ml
7,[Cl][Fe]([Cl])[Cl] [FeCl3],22.0 mU/ml
8,O=S(=O)([O-])[O-].O=S(=O)([O-])[O-].O=S(=O)([O-])[O-].[Al+3].[Al+3] [Al2(SO4)2],25.2 mU/ml
9,[Cl][Sn][Cl] [SnCl2],32.8 mU/ml
10,[Cl][Fe][Cl] [FeCl2],20.4 mU/ml
11,[Cl][Ni][Cl] [NiCl2],15.9 mU/ml
12,[Ca+2].[Cl-].[Cl-] [CaCl2],31.1 mU/ml
13,[Cl-].[Cl-].[Mg+2] [MgCl2],35.2 mU/ml
14,"[Cl][Co][Cl] [CoCl2, cobalt chloride]",54.4 mU/ml

# Same assay, conditions: 1 mM metal salt or EDTA; no addition = 100%
row,Structure (SMILES),Relative activity
1,[Ba+2].[Cl-].[Cl-] [BaCl2],95%
2,[Cl][Cu][Cl] [CuCl2],3%
3,[Cl-].[Cl-].[Zn+2] [ZnCl2],68%
4,[Cl][Mn][Cl] [MnCl2],65%
5,[Cl-].[K+] [KCl],93%
6,O=C(O)CN(CCN(CC(=O)O)CC(=O)O)CC(=O)O [EDTA],29%
7,[Cl][Fe]([Cl])[Cl] [FeCl3],68%
8,O=S(=O)([O-])[O-].O=S(=O)([O-])[O-].O=S(=O)([O-])[O-].[Al+3].[Al+3] [Al2(SO4)2],90%
9,[Cl][Sn][Cl] [SnCl2],102%
10,[Cl][Fe][Cl] [FeCl2],63%
11,[Cl][Ni][Cl] [NiCl2],51%
12,[Ca+2].[Cl-].[Cl-] [CaCl2],97%
13,[Cl-].[Cl-].[Mg+2] [MgCl2],109%
14,"[Cl][Co][Cl] [CoCl2, cobalt chloride]",168%

# Same assay, conditions: pH 7.5
row,Structure (SMILES),Activity
1,[Cl-].[Na+] [NaCl],33.1 mU/ml

# Tested on: D-aminoacylase derived from Streptomyces thermonitrificans
# Assay: Effect of inhibitors against D-aminoacylase
# Assay type: biochemical
# Conditions: not given
# Method: as §1, §2
row,Structure (SMILES),Relative activity
1,NO [Hydroxylammonium chloride],102%
2,O=C(O)CI [Monoiodoacetic acid],84%

# Same assay, conditions: 1 mM reagent, 50 mM Tris/HCl pH 7.5, 30° C., 100 minutes
row,Structure (SMILES),Activity
1,"c1ccc(-c2ccccn2)nc1 [2,2′-Bipyridyl]",21.9 mU/ml
2,O[C@@H](CS)[C@@H](O)CS [DTT],34.8 mU/ml
3,O=S(=O)(F)Cc1ccccc1 [Phenylmethylsulfonyl fluoride],29.5 mU/ml
4,"O=C(NNc1ccccc1)NNc1ccccc1 [1,5-Diphenylcarbonylhydrazide]",40.5 mU/ml
5,NO [Hydroxylammonium chloride],46.5 mU/ml
6,[I-].[K+] [KI],11.3 mU/ml
7,CCN1C(=O)C=CC1=O [N-Ethylmaleimide],1.3 mU/ml
8,O=C(O)c1cc[c]([Hg][Cl])cc1 [p-Chloromercuribenzoic acid],2.1 mU/ml
9,[F-].[Na+] [NaF],45.2 mU/ml

# Same assay, conditions: 1 mM reagent; no addition = 100%
row,Structure (SMILES),Relative activity
1,"c1ccc(-c2ccccn2)nc1 [2,2′-Bipyridyl]",49%
2,O[C@@H](CS)[C@@H](O)CS [DTT],76%
3,O=S(=O)(F)Cc1ccccc1 [Phenylmethylsulfonyl fluoride],70%
4,"O=C(NNc1ccccc1)NNc1ccccc1 [1,5-Diphenylcarbonylhydrazide]",89%
5,[I-].[K+] [KI],24%
6,CCN1C(=O)C=CC1=O [N-Ethylmaleimide],3%
7,O=C(O)c1cc[c]([Hg][Cl])cc1 [p-Chloromercuribenzoic acid],4%
8,[F-].[Na+] [NaF],99%

# Same assay, conditions: SH reagents, 1 mM
row,Structure (SMILES),Effect on enzyme activity (in words)
1,CCN1C(=O)C=CC1=O [N-Ethylmaleimide],inhibited
2,O=C(O)c1cc[c]([Hg][Cl])cc1 [p-Chloromercuribenzoic acid],inhibited

# Same assay, conditions: pH 7.5
row,Structure (SMILES),Activity
1,O=C(O)CI [Monoiodoacetic acid],37.9 mU/ml

# Tested on: not given
# Assay: not given
# Conditions: in vivo; cited from earlier work
row,Structure (SMILES),Teratogenic activity
1,"O=C1CCC(N2C(=O)c3ccccc3C2=O)C(=O)N1 [L(S)-form, thalidomide]",strong teratogenicity
2,"O=C1CCC(N2C(=O)c3ccccc3C2=O)C(=O)N1 [D(R)-form thalidomide, thalidomide]",no teratogenic activity
